Results taken from patent US20210403443A1, “SUBSTITUTED 1,2,4-OXADIAZOLE, ITS APPLICATION AND A PHARMACEUTICAL PREPARATION COMPRISING IT” (SVENOX PHARMACEUTICALS LLC, priority 2018, published 2021).

Columns and labels:
Test in all cases: microbe, parasite or virus in culture
Assay type in all cases: cell-based
[1] = test system: M. tuberculosis MDR strain 8666/2010
[2] = test system: M. tuberculosis MDR strain 7357/1998
[3] = test system: M. tuberculosis MDR strain 234/2005
[4] = test system: M. tuberculosis MDR strain Praha 131
[5] = test system: M. tuberculosis MDR strain 9449/2007
[6] = test system: M. tuberculosis MDR strain Praha 1
[7] = test system: M. tuberculosis MDR strain Praha 4

Molecule | Minimum inhibiting concentration of commonly used antibiotics and antituberculosis medicaments [1] | strain resistant or sensitive to the drug [1] | Minimum inhibiting concentration of commonly used antibiotics and antituberculosis medicaments [2] | strain resistant or sensitive to the drug [2] | Minimum inhibiting concentration of commonly used antibiotics and antituberculosis medicaments [3] | strain resistant or sensitive to the drug [3] | Minimum inhibiting concentration of commonly used antibiotics and antituberculosis medicaments [4] | strain resistant or sensitive to the drug [4] | Minimum inhibiting concentration of commonly used antibiotics and antituberculosis medicaments [5] | strain resistant or sensitive to the drug [5] | Minimum inhibiting concentration of commonly used antibiotics and antituberculosis medicaments [6] | strain resistant or sensitive to the drug [6] | Minimum inhibiting concentration of commonly used antibiotics and antituberculosis medicaments [7] | strain resistant or sensitive to the drug [7]
[H]/N=C(/N)N[C@H]1[C@H](O)[C@@H](O)[C@H](O[C@@H]2O[C@@H](C)[C@](O)(C=O)[C@H]2O[C@@H]2O[C@@H](CO)[C@H](O)[C@@H](O)[C@@H]2NC)[C@@H](N/C(N)=N\[H])[C@@H]1O [Streptomycin] | >27.5 R μmol · l^−1 | >27.5 R | >27.5 R μmol · l^−1 | >27.5 R | 27.5 R μmol · l^−1 | 27.5 R | >27.5 R μmol · l^−1 | >27.5 R | >27.5 R μmol · l^−1 | >27.5 R | 13.7 R μmol · l^−1 | 13.7 R | >27.5 R μmol · l^−1 | >27.5 R
Gentamicin | 2.09 C μmol · l^−1 | 2.09 C | 1.05 C μmol · l^−1 | 1.05 C | 0.26 C μmol · l^−1 | 0.26 C | >8.37 R μmol · l^−1 | >8.37 R | 1.05 C μmol · l^−1 | 1.05 C | 1.05 C μmol · l^−1 | 1.05 C | 0.52 C μmol · l^−1 | 0.52 C
